Positions of bridges follow the written chain, without caps; N, C: chain ends. Non-standard residues stand in square brackets, D forms with d. Residues, ends and D or L forms follow the SMILES beside them. hArg = N=C(N)NCCCC[C@H](N)C(=O)O; Mpa = O=C(O)CCS
Key:
Bile salt export pump = Bile salt export pump (Homo sapiens, UniProt O95342); assay: Inhibition of human BSEP overexpressed in Sf9 cell membrane vesicles assessed as uptake of [3H]-taurocholate in presence of ATP measured after 15 to 20 mins by membrane vesicle transport assay; assay type: ADME, cell-based
Sequence of Bile salt export pump (O95342 whole entry): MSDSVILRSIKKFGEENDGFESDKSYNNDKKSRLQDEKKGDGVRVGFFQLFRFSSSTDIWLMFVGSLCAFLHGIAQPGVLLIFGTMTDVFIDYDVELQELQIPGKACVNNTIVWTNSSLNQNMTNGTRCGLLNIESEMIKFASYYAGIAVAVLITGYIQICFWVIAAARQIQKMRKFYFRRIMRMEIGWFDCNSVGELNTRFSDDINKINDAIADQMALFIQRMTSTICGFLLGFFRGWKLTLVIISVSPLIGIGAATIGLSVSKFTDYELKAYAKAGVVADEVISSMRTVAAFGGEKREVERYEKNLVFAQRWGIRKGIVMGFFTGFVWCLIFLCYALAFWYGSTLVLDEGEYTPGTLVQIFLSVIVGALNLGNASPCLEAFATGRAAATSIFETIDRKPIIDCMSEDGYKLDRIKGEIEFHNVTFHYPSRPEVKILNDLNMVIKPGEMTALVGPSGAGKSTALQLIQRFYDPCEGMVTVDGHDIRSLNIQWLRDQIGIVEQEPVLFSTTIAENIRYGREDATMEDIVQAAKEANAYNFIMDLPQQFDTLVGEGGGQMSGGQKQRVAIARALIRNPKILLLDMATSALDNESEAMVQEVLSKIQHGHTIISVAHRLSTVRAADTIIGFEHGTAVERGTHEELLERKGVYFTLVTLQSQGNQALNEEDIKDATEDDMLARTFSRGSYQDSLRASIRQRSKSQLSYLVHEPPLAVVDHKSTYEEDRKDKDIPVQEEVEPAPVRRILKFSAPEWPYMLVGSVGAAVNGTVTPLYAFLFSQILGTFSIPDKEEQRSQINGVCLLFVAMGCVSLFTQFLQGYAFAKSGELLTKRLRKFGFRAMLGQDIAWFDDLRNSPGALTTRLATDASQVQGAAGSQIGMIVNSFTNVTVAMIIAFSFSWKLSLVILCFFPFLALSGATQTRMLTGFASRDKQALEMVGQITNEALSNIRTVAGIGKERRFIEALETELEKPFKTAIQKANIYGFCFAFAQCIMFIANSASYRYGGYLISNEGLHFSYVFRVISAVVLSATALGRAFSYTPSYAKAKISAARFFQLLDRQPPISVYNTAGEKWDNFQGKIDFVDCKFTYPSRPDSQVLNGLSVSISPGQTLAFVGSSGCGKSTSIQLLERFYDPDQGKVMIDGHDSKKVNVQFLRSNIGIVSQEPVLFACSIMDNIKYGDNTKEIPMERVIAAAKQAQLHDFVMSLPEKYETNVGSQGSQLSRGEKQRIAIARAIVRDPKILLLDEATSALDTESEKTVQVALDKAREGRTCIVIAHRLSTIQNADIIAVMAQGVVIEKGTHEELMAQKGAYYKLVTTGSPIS

[1] = target: ATP-binding cassette sub-family C member 2 (Homo sapiens, UniProt Q92887); assay: Inhibition of human MRP2 overexpressed in Sf9 cell membrane vesicles assessed as uptake of [3H]-estradiol-17beta-D-glucuronide in presence of ATP and GSH measured after 20 mins by membrane vesicle transport assay
Sequence of ATP-binding cassette sub-family C member 2 (Q92887 whole entry): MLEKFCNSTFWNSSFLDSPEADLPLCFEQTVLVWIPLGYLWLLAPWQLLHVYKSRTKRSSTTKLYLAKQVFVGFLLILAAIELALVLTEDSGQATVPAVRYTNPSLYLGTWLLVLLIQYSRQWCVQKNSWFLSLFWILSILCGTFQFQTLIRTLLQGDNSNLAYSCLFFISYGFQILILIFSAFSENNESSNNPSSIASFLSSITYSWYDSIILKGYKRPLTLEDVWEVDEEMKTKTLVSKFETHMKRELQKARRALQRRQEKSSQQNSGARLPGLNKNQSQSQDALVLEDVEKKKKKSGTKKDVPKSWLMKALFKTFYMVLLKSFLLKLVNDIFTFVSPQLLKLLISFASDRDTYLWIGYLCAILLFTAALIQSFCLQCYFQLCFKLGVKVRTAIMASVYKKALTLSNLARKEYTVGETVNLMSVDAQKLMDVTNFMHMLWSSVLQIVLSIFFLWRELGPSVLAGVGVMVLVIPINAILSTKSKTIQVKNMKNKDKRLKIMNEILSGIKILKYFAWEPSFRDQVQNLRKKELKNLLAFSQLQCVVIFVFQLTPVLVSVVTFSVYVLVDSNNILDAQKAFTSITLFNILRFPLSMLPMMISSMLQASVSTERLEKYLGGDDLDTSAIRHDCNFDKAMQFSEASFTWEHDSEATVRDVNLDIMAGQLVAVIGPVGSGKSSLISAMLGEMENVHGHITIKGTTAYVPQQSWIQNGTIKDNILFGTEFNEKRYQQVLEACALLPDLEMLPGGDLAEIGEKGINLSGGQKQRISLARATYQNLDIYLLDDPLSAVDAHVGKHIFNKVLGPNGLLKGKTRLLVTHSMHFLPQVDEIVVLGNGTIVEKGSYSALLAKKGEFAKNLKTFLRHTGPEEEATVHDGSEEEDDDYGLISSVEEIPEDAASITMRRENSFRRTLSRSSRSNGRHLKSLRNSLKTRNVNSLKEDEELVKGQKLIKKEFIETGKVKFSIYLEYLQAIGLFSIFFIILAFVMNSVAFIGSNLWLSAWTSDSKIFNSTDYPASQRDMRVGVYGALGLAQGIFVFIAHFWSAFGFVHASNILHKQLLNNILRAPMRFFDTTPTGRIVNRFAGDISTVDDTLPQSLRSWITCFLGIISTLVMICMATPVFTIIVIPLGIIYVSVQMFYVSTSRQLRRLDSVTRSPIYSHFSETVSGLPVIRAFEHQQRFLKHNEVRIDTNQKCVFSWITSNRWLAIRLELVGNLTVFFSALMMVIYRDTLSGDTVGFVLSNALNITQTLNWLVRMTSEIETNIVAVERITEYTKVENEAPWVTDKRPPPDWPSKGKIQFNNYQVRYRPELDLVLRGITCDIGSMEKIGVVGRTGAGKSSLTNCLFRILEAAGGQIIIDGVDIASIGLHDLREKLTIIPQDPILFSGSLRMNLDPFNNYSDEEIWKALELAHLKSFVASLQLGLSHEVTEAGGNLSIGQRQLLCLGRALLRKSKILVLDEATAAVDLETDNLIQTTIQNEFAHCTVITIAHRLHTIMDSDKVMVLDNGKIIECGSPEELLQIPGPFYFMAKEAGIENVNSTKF

[2] = target: ATP-binding cassette sub-family C member 3 (Homo sapiens, UniProt O15438); assay: Inhibition of human MRP3 overexpressed in Sf9 insect cell membrane vesicles assessed as uptake of [3H]-estradiol-17beta-D-glucuronide in presence of ATP and GSH measured after 10 mins by membrane vesicle transport assay; assay type: ADME, cell-based
Sequence of ATP-binding cassette sub-family C member 3 (O15438 whole entry): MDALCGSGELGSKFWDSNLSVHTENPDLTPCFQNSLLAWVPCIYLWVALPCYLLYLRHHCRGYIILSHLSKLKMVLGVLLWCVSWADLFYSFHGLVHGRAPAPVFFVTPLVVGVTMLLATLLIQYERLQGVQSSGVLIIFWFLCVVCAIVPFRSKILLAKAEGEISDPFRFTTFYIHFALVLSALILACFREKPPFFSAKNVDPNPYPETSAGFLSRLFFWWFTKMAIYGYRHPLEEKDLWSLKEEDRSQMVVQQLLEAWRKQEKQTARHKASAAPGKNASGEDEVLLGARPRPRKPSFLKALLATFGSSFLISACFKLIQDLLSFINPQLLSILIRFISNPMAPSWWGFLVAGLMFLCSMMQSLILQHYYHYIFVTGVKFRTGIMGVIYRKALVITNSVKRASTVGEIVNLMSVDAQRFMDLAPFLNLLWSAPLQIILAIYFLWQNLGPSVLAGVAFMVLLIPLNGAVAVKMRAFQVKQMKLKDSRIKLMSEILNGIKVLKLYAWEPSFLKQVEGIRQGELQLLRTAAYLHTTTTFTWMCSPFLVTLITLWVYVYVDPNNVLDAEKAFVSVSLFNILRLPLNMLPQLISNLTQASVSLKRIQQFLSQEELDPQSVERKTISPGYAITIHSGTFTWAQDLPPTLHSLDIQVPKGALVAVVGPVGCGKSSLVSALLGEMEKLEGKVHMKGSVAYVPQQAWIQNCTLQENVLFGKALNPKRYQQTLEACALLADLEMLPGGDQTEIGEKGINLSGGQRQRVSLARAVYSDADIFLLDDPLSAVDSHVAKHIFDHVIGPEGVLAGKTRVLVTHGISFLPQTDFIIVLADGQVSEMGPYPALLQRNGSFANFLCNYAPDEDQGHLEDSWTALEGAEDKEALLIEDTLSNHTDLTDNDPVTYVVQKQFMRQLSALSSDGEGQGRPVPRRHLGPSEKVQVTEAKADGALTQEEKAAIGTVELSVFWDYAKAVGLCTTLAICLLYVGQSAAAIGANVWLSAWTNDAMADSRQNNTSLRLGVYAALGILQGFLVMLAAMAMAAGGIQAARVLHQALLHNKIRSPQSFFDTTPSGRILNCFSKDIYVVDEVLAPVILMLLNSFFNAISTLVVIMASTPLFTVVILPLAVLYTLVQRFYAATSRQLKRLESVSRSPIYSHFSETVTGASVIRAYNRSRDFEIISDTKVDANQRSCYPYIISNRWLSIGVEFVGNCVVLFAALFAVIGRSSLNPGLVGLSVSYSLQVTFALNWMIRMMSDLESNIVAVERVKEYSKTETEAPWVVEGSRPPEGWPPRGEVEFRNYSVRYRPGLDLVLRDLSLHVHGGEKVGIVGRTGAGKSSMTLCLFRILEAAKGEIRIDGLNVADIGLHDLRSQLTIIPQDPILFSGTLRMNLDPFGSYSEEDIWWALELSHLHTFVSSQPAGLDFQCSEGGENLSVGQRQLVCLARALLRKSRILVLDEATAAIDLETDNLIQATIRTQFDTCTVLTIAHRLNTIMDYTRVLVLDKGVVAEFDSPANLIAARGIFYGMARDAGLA

[3] = target: T1, ATP-binding cassette sub-family C member 4 (Homo sapiens, UniProt O15439); assay: Inhibition of human MRP4 overexpressed in Sf9 cell membrane vesicles assessed as uptake of [3H]-estradiol-17beta-D-glucuronide in presence of ATP and GSH measured after 20 mins by membrane vesicle transport assay; assay type: ADME, cell-based
T1 sequence (O15439 whole entry): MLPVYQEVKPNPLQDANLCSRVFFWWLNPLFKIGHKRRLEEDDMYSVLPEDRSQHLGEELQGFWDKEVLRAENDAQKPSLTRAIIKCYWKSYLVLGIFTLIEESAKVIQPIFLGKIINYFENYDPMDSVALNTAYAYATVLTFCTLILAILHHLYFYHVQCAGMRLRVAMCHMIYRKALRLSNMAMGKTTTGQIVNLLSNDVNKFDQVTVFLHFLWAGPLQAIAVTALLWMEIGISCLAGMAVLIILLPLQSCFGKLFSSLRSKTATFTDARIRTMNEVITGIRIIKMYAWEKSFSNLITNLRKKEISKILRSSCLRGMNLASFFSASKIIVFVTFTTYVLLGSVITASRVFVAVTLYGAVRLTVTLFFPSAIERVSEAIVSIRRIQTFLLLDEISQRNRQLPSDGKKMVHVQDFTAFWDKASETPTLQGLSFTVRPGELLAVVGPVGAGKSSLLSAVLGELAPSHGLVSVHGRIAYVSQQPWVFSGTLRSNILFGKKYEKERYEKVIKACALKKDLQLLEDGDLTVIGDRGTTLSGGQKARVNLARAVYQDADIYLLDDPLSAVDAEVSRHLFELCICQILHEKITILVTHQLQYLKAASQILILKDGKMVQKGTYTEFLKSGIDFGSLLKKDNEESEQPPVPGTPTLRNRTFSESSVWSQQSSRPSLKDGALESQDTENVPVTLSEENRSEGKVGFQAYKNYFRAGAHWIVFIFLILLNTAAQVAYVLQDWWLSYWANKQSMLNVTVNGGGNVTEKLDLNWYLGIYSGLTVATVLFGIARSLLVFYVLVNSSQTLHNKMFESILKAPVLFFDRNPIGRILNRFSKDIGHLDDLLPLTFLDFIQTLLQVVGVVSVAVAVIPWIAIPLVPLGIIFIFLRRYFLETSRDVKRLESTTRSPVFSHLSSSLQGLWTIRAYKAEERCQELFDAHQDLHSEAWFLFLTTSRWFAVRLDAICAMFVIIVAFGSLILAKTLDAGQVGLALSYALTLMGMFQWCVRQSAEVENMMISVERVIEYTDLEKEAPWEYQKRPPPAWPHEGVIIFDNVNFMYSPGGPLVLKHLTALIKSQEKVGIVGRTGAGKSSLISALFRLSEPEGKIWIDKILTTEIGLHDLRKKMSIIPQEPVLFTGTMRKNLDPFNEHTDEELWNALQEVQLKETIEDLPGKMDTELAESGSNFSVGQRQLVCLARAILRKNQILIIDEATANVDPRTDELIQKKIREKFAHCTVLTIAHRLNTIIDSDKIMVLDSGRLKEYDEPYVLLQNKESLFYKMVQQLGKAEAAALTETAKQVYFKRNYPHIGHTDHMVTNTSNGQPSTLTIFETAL

Row | SMILES | IC50 (Bile salt export pump) [µM] | IC50 [1] [µM] | IC50 [2] [µM] | IC50 [3] [µM]
1 | CC[C@@]1(O)C(=O)OCc2c1cc1n(c2=O)Cc2cc3c([N+](=O)[O-])cccc3nc2-1 [RUBITECAN] | > 133 | 60.5 | 10.2 | 5.1
2 | CC[C@H](C)C(=O)O[C@H]1CCC=C2C=C[C@H](C)[C@H](CC[C@@H]3C[C@@H](O)CC(=O)O3)[C@H]21 [MEVASTATIN] | 27 | > 133 | > 133 | > 133
3 | N=C(N)NCCCC[C@@H]1NC(=O)CCSSC[C@@H](C(N)=O)NC(=O)[C@@H]2CCCN2C(=O)[C@H](Cc2c[nH]c3ccccc23)NC(=O)[C@H](CC(=O)O)NC(=O)CNC1=O ([Mpa][hArg]GDWPC-NH2; disulfide 1-7) | > 133 | > 133 | > 133 | > 133
4 | S=P(N1CC1)(N1CC1)N1CC1 [THIOTEPA] | > 133 | > 133 | > 133 | > 133
5 | Cc1cn([C@H]2C=C[C@@H](CO)O2)c(=O)[nH]c1=O [STAVUDINE] | > 133 | > 133 | > 133 | > 133
6 | OCc1cc(C(O)CNCCCCCCOCCCCc2ccccc2)ccc1O (stereo unspecified) [SALMETEROL XINAFOATE] | > 133 | > 133 | > 133 | > 133
7 | C[C@@H](O)[C@H]1C(=O)N2C(C(=O)O)=C(S[C@@H]3CN[C@H](C(=O)N(C)C)C3)[C@H](C)[C@H]12 [MEROPENEM] | > 133 | > 133 | > 133 | > 133
8 | O=C1Nc2ccc(Cl)cc2[C@@](C#CC2CC2)(C(F)(F)F)O1 [EFAVIRENZ] | > 133 | > 133 | > 133 | > 133
9 | O=P1(N(CCCl)CCCl)NCCCO1 (stereo unspecified) [CYCLOPHOSPHAMIDE ANHYDROUS] | > 133 | > 133 | > 133 | > 133
10 | CN(C)CCC=C1c2ccccc2CCc2ccccc21 [AMITRIPTYLINE] | > 133 | > 133 | > 133 | > 133
11 | COc1ccc(Cl)cc1[C@]1(F)C(=O)Nc2cc(C(F)(F)F)ccc21 [FLINDOKALNER] | > 133 | > 133 | > 133 | > 133
12 | Oc1ncnc2[nH]ncc12 [ALLOPURINOL] | > 133 | > 133 | > 133 | > 133
13 | CCCNC(=O)NS(=O)(=O)c1ccc(Cl)cc1 [CHLORPROPAMIDE] | > 133 | > 133 | > 133 | > 133
14 | Cc1cccc(C)c1OCC(C)N (stereo unspecified) [MEXILETINE] | > 133 | > 133 | > 133 | > 133
15 | Cc1ccc(-c2cc(C(F)(F)F)nn2-c2ccc(S(N)(=O)=O)cc2)cc1 [CELECOXIB] | > 133 | > 133 | > 133 | > 133
16 | CCN(CC)CCOc1ccc(C(=C(Cl)c2ccccc2)c2ccccc2)cc1 [CLOMIPHENE] | > 133 | > 133 | > 133 | > 133
17 | CC1(C)O[C@@H]2C[C@H]3[C@@H]4CCC5=CC(=O)C=C[C@]5(C)[C@@]4(F)[C@@H](O)C[C@]3(C)[C@]2(C(=O)CO)O1 [TRIAMCINOLONE ACETONIDE] | > 133 | > 133 | > 133 | > 133
18 | Cc1c(OCC(F)(F)F)ccnc1C[S@@+]([O-])c1nc2ccccc2[nH]1 [DEXLANSOPRAZOLE] | > 133 | > 133 | > 133 | > 133
19 | CC(SC(=O)c1cccs1)C(=O)NCC(=O)O (stereo unspecified) [STEPRONIN] | > 133 | > 133 | > 133 | > 133

From ChEMBL document CHEMBL4028801, “A multifactorial approach to hepatobiliary transporter assessment enables improved therapeutic compound development” (Toxicol Sci, 2013)
